Experiments:
PDE 4 = assay: Inhibition of phosphodiesterase 4 (SPA assay, enzyme preparation from human PMNLs); assay type: biochemical; details: cytosolic PDE 4 fraction from human PMNLs; 0.5 μM [3H]-cAMP; 100 μM cGMP
Experimental: The PDE 4 activity is determined using enzyme preparations from human […] (PMNLs). Human blood (buffy coats) was anticoagulated with citrate. The platelet-rich plasma in the supernatant is separated from the erythrocytes and leucocytes by centrifuging at 700 […]g for 20 minutes at room temperature (RT). The PMNLs for the PDE 4 determination are isolated by means of a subsequent dextran sedimentation followed by a gradient centrifugation using Ficoll-Paque. After the cells have been washed twice, the erythrocytes which are still present are lysed within 6 minutes by adding 10 ml of hypotonic buffer (155 mM NH4Cl, 10 mM NaHCO3, 0.1 mM EDTA, pH=7.4) at 4° C. The PMNLs, which are still intact, are washed a further two times with PBS and lysed by ultrasonication. The supernatant obtained after centrifuging at 48 000×g at 4° C. for one hour contains the cytosolic PDE 4 fraction and is used for the PDE 4 measurements.
The phosphodiesterase activity is measured using a modified Amersham Pharmacia Biotech method, i.e. an SPA (scintillation proximity assay) assay. The reaction mixtures contain buffer (50 mM tris-HCl (pH 7.4), 5 mM MgCl2, 100 μM cGMP), varying concentrations of the inhibitors, and the corresponding enzyme preparation. The reaction is started by adding the substrate, i.e. 0.5 μM [3H]-cAMP. The final volume is 100 μl. Test substances are prepared as stock solutions in DMSO. The concentration of DMSO in the reaction mixture is 1% v/v. This DMSO concentration has no effect on PDE activity. After the reaction has been started by adding the substrate, the samples are incubated at 37° C. for 30 minutes. The reaction is stopped by adding a defined quantity of SPA beads and the samples are measured in a beta counter after one hour. The nonspecific enzyme activity (i.e. the blank) is determined in the presence of 100 μM rolipram and subtracted from the test values. The incubation mixtures for the PDE 4 assay contain 100 μM cGMP in order to inhibit any contamination of PDE 3 which may be present.

[1] = test system: pulmonary neutrophil infiltration; assay: Inhibition of lipopolysaccharide (LPS)-induced pulmonary neutrophilia in Lewis rats; assay type: in vivo; details: 2 h prior to LPS provocation, BAL 6 h after provocation
Experimental: The ability of the substances according to the invention to inhibit pulmonary neutrophil infiltration is examined in male Lewis rats (200-350 g). On the day of the experiment, the animals are placed individually in open 1 l Plexiglass boxes which are connected to a head/nose exposure appliance. The animals are exposed to an aerosol consisting of a suspension of lipopolysaccharide (100 μg of LPS/ml of 0.1% hydroxylamine solution) in PBS (LPS provocation). The LPS/hydroxylamine aerosol is generated using a compressed air (0.2 MPa)-driven nebulizer (Bird micro nebulizer, Palm Springs Calif., USA). The exposure time is 40 minutes, with normal controls likewise being nebulized for 40 minutes with an aerosol consisting of a 0.1% solution of hydroxylamine in PBS.
6 hours after the LPS provocation, there is a maximal and massive immigration of neutrophilic granulocytes into the lungs of the animals. At this time, the animals are anaesthetized with an overdose of ethylurethane (1.5 g/kg of body weight, given i.p.) and a bronchoalveolar lavage (BAL) is carried out using 3×4 ml of Hank's balance solution. The total cell count, and the number of neutrophilic granulocytes, in the pooled BAL liquid are then determined using an automatic haemocytometer (Bayer Diagnostics Technicon H1E). In the case of each animal, the neutrophils (NEUTRO) in the BAL are calculated in 10^6/animal: NEUTRO/μl×BAL recovery (ml)=NEUTRO/animal.
Two control groups (nebulization with a 0.1% hydroxylamine solution in PBS and nebulization with 100 μg of LPS/ml of 0.1% hydroxylamine solution in PBS) are included in each test. The percentage inhibition of the neutrophilia in the substance-treated experimental group is calculated using the following formula: {((LPSC−SC)−(LPSD−SC))/(LPSC−SC)}×100%=% inhibition
SC=control group treated with vehicle and challenged with 0.1% hydroxylamine solution; LPSC=control group treated with vehicle and challenged with LPS (100 μg/ml of 0.1% hydroxylamine solution); LPSD=experimental group treated with substance and challenged with LPS (100 μg/ml of 0.1% hydroxylamine solution)
The test substances are administered 2 hours prior to the LPS provocation, as a suspension in 10% polyethylene glycol 300 and 0.5% 5-hydroxyethyl cellulose orally or per inhalation as a mixture with lactose. The control groups are treated with the vehicle in accordance with the mode of administration used for the test substance.

[2] = test system: pulmonary eosinophil infiltration; assay: Inhibition of late-phase eosinophilia 48 h after inhalative ovalbumin challenge in actively sensitized Brown Norway rats; assay type: in vivo; details: 2 h prior to allergen challenge, BAL 48 h after challenge
Experimental: The inhibition exerted by the substances according to the invention on pulmonary eosinophil infiltration is examined in male Brown Norway rats (200-250 g) which have been actively sensitized against ovalbumin (OVA). The sensitization is effected by subcutaneously injecting a suspension of 10 μg of OVA, together with 20 mg of aluminium hydroxide as adjuvant, in 0.5 ml of physiological sodium chloride solution per animal on days 1, 14 and 21. In addition to this, each of the animals is injected at the same time with 0.25 ml of Bordetalla pertussis vaccine dilution i.p. On the 28th day of the experiment, the animals are placed individually in open 11 Plexiglass boxes which are connected to a head/nose exposure appliance. The animals are exposed to an aerosol consisting of a 1.0% suspension of ovalbumin (Allergen Challenge). The ovalbumin aerosol is generated using a compressed air (0.2 MPa)-driven nebulizer (Bird micro nebulizer, Palm Springs Calif., USA). The exposure time is 1 hour, with normal controls likewise being nebulized for 1 hour with an aerosol consisting of a 0.9% solution of sodium chloride.
48 hours after the allergen challenge, there is a massive immigration of eosinophilic granulocytes into the lungs of the animals. At this time, the animals are anaesthetized with an overdose of ethylurethane (1.5 g/kg of body weight, given i.p.) and a bronchoalveolar lavage (BAL) is carried out using 3×4 ml of Hank's balance solution. The total cell count, and the number of eosinophilic granulocytes, in the pooled BAL liquid are then determined using an automatic haemocytometer (Bayer Diagnostics Technicon H1E). For each animal, the eosinophils (EOS) in the BAL are calculated in 10^6/animal: EOS/μl×BAL recovery (ml)=EOS/animal. Two control groups (nebulization with physiological sodium chloride solution and nebulization with OVA solution) are included in each test.
The percentage inhibition of the eosinophilia in the substance-treated experimental group is calculated using the following formula: {((OVAC−SC)−(OVAD−SC))/(OVAC−SC)}×100%=% inhibition
(SC=control group treated with vehicle and challenged with 0.9% sodium chloride solution; OVAC=control group treated with vehicle and challenged with 1% of ovalbumin suspension; OVAD=experimental group treated with substance and challenged with 1% of ovalbumin suspension)
The test substances are administered 2 hours prior to the allergen challenge intraperitoneally or orally as a suspension in 10% polyethylene glycol 300 and 0.5% 5-hydroxyethyl cellulose or per inhalation as a mixture with lactose. The control groups are treated with the vehicle in accordance with the manner in which the test substance is administered.

SMILES	IC50 (PDE 4) [nM]	Inhibition of neutrophilia ([1]; 0.001 mg/kg i.t.) [%]	Inhibition of neutrophilia ([1]; 1 mg/kg p.o.) [%]	Inhibition of eosinophilia ([2]; 0.001 mg/kg i.t.) [%]	Inhibition of eosinophilia ([2]; 10 mg/kg i.p.) [%]	Inhibition of eosinophilia ([2]; 30 mg/kg p.o.) [%]	melting point	Inhibition of neutrophilia ([1]; 0.1 mg/kg i.t.)	Inhibition of eosinophilia ([2]; 0.1 mg/kg i.t.)	Inhibition of neutrophilia ([1]; 0.01 mg/kg i.t.)	Inhibition of eosinophilia ([2]; 0.01 mg/kg i.t.)
Cc1ccc(Cn2cc(C(=O)C(=O)Nc3c(Cl)cncc3Cl)c3cccc(O)c32)cc1[N+](=O)[O-] [Compound 3, N-(3,5-dichloropyridine-4-yl)-[7-hydroxy-1-(4-methyl-3-nitrobenzyl)-indol-3-yl]-glyoxylic acid amide]	8										
O=C(Nc1c(Cl)cncc1Cl)C(=O)c1cn(Cc2ccc(Cl)cc2[N+](=O)[O-])c2c(O)cccc12 [Compound 1, N-(3,5-dichloropyrdin-4-yl)-[1-(4-chloro-2-nitrobenzyl)-7-hydroxyindol-3-yl]glyoxylic acid amide]	0.9	51	49	55	57	51					
O=C(Nc1c(Cl)cncc1Cl)C(=O)c1cn(Cc2c(F)cccc2[N+](=O)[O-])c2c(O)cccc12 [Compound 2, N-(3,5-dichloropyridine-4-yl)[1-(6-fluoro-2-nitrobenzyl)-7-hydroxyindole-3-yl)glyoxylic acid amide]	0.6						308 to 310 °C				
O=C(Nc1c(Cl)cncc1Cl)C(=O)c1cn(Cc2cccc([N+](=O)[O-])c2)c2c(O)cccc12 [Comparative Compound A]	2		39		33	31		no effect	no effect		
Cc1c(Cn2cc(C(=O)C(=O)Nc3c(Cl)cncc3Cl)c3cccc(O)c32)cccc1[N+](=O)[O-] [Compound 4, N-(3,5-dichloropyridine-4-yl)-[7-hydroxy-1-(2-methyl-3-nitrobenzyl)-indol-3-yl]-glyoxylic acid amide]	2						229 to 232 °C (dec.)				
Cc1ccc([N+](=O)[O-])c(Cn2cc(C(=O)C(=O)Nc3c(Cl)cncc3Cl)c3cccc(O)c32)c1 [Compound 5, N-(3,5-dichloropyridine-4-yl)-[7-hydroxy-1-(5-methyl-2-nitrobenzyl)-indol-3-yl]-glyoxylic acid amide]	38						297 to 300 °C (dec.)				
O=C(Nc1c(Cl)c[n+]([O-])cc1Cl)C(=O)c1cn(Cc2ccc(Cl)cc2[N+](=O)[O-])c2c(O)cccc12 [Compound 6, N-(3,5-dichloro-1-oxo-pyridine-4-yl)-[1-(4-chloro-2-nitrobenzyl)-7-hydroxyindol-3-yl]-glyoxylic acid amide]	4										
O=C(Nc1c(Cl)cncc1Cl)C(=O)c1cn(Cc2c(F)cccc2F)c2c(O)cccc12 [Comparative Compound B, N-(3,5-dichloropyridin-4-yl)[1-(2,6-difluorobenzyl)-7-hydroxyindol-3-yl] glyoxylic acid amide]	2		31		38	30		38%	35%	no effect	no effect
O=C(Nc1c(Cl)cncc1Cl)C(=O)c1cn(Cc2ccccc2Cl)c2c(O)cccc12 [Comparative Compound C, (N-3,5-dichloropyridin-4-yl)[1-(2-chlorobenzyl)-7-hydroxyindol-3-yl] glyoxylic acid amide]	0.6		34		30	32		31%	62%	no effect	no effect

From patent US20060293362A1, “Nitro-substituted hydroxyindoles, their use as inhibitors of phosphodiesterase 4, and processes for preparing them” (priority 2005, published 2006)
